Laboratory results as given in patent US20140004075A1, “PHEROMONE COMPOSITION” (The New Zealand Institute for Plant and Food Research …, priority 2010, published 2014).

Test system: Epiphyas postvittana
Assay: Large Vineyard Trial 2 (disruption of catch to four component lures)
Format: in vivo
Details: added at 4:1 ratio E11-14:Ac to Z11-14:Ac (Blends 4, 5)
Experimental: All compounds used as authentic standards in the chromatographic analysis or in the field trapping experiments were >97% pure by GC analysis and stored at −80° C. until used. Samples of E11-14:Ac, E9E11-14:Ac, E11-14:OH and E11-16:Ac were purchased from Plant Research International, Wageningen, The Netherlands. All blends of synthetic compounds were applied to the large “well” of red rubber septa (West Pharmaceutical Services, Kearney, N.E., USA) in 200 μl of n-hexane GR (Merck Ltd, New Zealand). The solvent was allowed to evaporate in a fume hood and the septa were stored in heat-sealed foil bags at −20° C. until ready for use. For traps used in assessing disruption, lures contained the four component lure at 1 mg loading with the blends shown in Table 1. […]
Traps were maintained weekly as a short central row transect in each case, with 3 traps containing the four component lure. […] For both trials, the number of moths in the traps was recorded each week. […]
For both Large Vineyard Trials 1 and 2, counts for each date were analysed. In addition, the total pre-treatment and post-treatment counts were analysed. […] Random effects assessed were blocks (replicates), plots within blocks, and spatial position (rows and column as in the Trial plans). In addition to the treatments, for the post-treatment counts, a co-variate for the trap counts in the last pre-treatment week was assessed as a fixed effect. […]

## CC/C=C\CCCCCCCCCCOC(C)=O [Z11-14:Ac, (Z)-11-tetradecenyl acetate]
  effect of the inhibitor on disruption: antagonistic to disruption
